Source: patent US8143225B2 (priority 2002, dated 2012)
Where two headings read alike, the source gives them in different places.

How the values were obtained:
[1] = Bioavailability of desmopressin conventional tablets (Comparative Example 4); settings: male, human, in vivo, po, 200 μg
Source text: Thirty-six healthy male volunteers (Caucasian, Black and Hispanic) were enrolled in this study, which was designed as an open label, single dose, 3-way crossover study.

clinical = settings: male, human, in vivo
Procedure: Twenty-four healthy non-smoking male volunteers were enrolled in the present study. The study was designed as a one-centre, open-labelled, randomized, balanced, 4-way cross-over phase I study. […] Between the doses there was a washout period of 72 hours. In order to standardize the buccal mucosa before administration of the orodispersible tablet, the subjects were asked to avoid foods, chewing gun etc. Subjects were allowed to brush their teeth in the morning before dosing, but without toothpaste. […] 3.2 (Pharsight Corporation, US). […] Values below LOQ not followed by values above the LOQ are excluded from the NCA analysis, and set to zero in the descriptive statistics on concentrations.

[2] = human, in vivo, cited from earlier work
[3] = test system: adult males and females treated for nocturia; assay: Clinical observations in adult males and females treated with desmopressin for nocturia; type: in vivo, human
Source text: Hyponatremia can result in seizures, cardiac arrhythmias, cerebral edema and death.

[4] = in vivo; cited from earlier work

## NC(=O)CC[C@@H]1NC(=O)[C@H](Cc2ccccc2)NC(=O)[C@H](Cc2ccc(O)cc2)NC(=O)CCSSC[C@@H](C(=O)N2CCC[C@H]2C(=O)N[C@H](CCCN=C(N)N)C(=O)NCC(N)=O)NC(=O)[C@H](CC(N)=O)NC1=O [desmopressin, 1-desamino-8-D-arginine vasopressin]
[1]; oral 1×200 μg tablet (Comparative Example 2)
  bioavailability: 0.16%
[1]; oral 2×100 μg tablets (Comparative Example 3)
  bioavailability: 0.13%
clinical
  bioavailability: 0.23 to 0.38%
clinical; bioavailability
  bioavailability: 0.3%
[2]; iv
  % Bioavailability: Intravenous (100) %
[2]; po
  % Bioavailability: Oral (0.1) %
  bioavailability: 0.1-0.15%
[2]; sc
  % Bioavailability: Subcutaneous (±90) %
[3]; oral doses 100 to 400 mcg and intranasal doses 10 to 20 mcg
  incidence of nocturia: decreased the incidence of nocturia
[3]; standard oral doses 100 to 400 mcg and intranasal doses 10 to 20 mcg, nocturia patients
  incidence of hyponatremia: unexpectedly high incidence of hyponatremia
[4]
  absorption: not significantly absorbed
